Legend:
Type in all cases: functional, cell-based
A549 = assay: Cytotoxicity against human A549 cells after 48 hrs by MTT assay; settings: A549, 48 h
HeLa = assay: Cytotoxicity against human HeLa cells after 48 hrs by MTT assay
DU-145 = assay: Cytotoxicity against human DU145 cells after 48 hrs by MTT assay; settings: DU-145, 48 h

O=c1oc2ccccc2c2c1cnn2-c1ccccc1
IC50 (A549): 175 µM
IC50 (HeLa): 165 µM
IC50 (DU-145): 125 µM

Cc1ccc2oc(=O)c3cnn(-c4cccc(Cl)c4)c3c2c1
IC50 (A549): 150 µM
IC50 (HeLa): 120 µM
IC50 (DU-145): 105 µM

CCOC(=O)c1c(-c2cc3cc(OC)ccc3oc2=O)nn(-c2ccccc2)c1C(=O)OCC
IC50 (A549): 35 µM
IC50 (HeLa): 145 µM
IC50 (DU-145): 27 µM

Cc1ccc2oc(=O)c3cnn(-c4ccccc4)c3c2c1
IC50 (A549): 125 µM
IC50 (HeLa): 192 µM
IC50 (DU-145): 110 µM

CCOC(=O)c1c(-c2cc3cc(OC)ccc3oc2=O)nn(-c2cccc(C)c2)c1C(=O)OCC
IC50 (A549): 102 µM
IC50 (HeLa): 155 µM
IC50 (DU-145): 31 µM

CCOC(=O)c1c(-c2c(Cl)c3ccccc3oc2=O)nn(-c2ccc(OC)cc2)c1C(=O)OCC
IC50 (A549): 18 µM
IC50 (HeLa): 27 µM
IC50 (DU-145): 25 µM

CCOC(=O)c1c(-c2cc3ccccc3oc2=O)nn(-c2ccc(OC)cc2)c1C(=O)OCC
IC50 (A549): 86 µM
IC50 (HeLa): 90 µM
IC50 (DU-145): 39 µM

COC(=O)Nc1nc2cc(C(=O)c3cccs3)ccc2[nH]1 [NOCODAZOLE]
IC50 (A549): 2.31 µM
IC50 (HeLa): 0.71 µM
IC50 (DU-145): 2.8 µM

COC(=O)c1c(-c2cc3ccccc3oc2=O)nn(-c2ccc(Br)cc2)c1C(=O)OC
IC50 (A549): 165 µM
IC50 (HeLa): 120 µM
IC50 (DU-145): 93 µM

CCOC(=O)c1c(-c2c(Cl)c3ccccc3oc2=O)nn(-c2cccc(Cl)c2)c1C(=O)OCC
IC50 (A549): 38 µM
IC50 (HeLa): 40 µM
IC50 (DU-145): 24 µM

Cc1nn(-c2cccc(Cl)c2)c2c1c(=O)oc1ccccc12
IC50 (A549): 85 µM
IC50 (HeLa): 175 µM
IC50 (DU-145): 139 µM

CCOC(=O)c1c(-c2cc3c(ccc4ccccc43)oc2=O)nn(-c2cccc(C)c2)c1C(=O)OCC
IC50 (A549): 179 µM
IC50 (HeLa): 155 µM
IC50 (DU-145): 259 µM

Cc1nn(-c2ccc(Cl)cc2)c2c1c(=O)oc1ccccc12
IC50 (A549): 136 µM
IC50 (HeLa): 83 µM
IC50 (DU-145): 121 µM

CCOC(=O)c1c(-c2c(Cl)c3cc(C)ccc3oc2=O)nn(-c2ccccc2)c1C(=O)OCC
IC50 (A549): 108 µM
IC50 (HeLa): 228 µM
IC50 (DU-145): 50 µM

CCOC(=O)c1c(-c2cc3cc4c(cc3oc2=O)OC(C)(C)CC4)nn(-c2ccccc2)c1C(=O)OCC
IC50 (A549): 189 µM
IC50 (HeLa): 125 µM
IC50 (DU-145): 209 µM

Cc1cccc(-n2ncc3c(=O)oc4ccccc4c32)c1
IC50 (A549): 160 µM
IC50 (HeLa): 135 µM
IC50 (DU-145): 100 µM

CCOC(=O)c1c(-c2cc3ccccc3oc2=O)nn(-c2cccc(C)c2)c1C(=O)OCC
IC50 (A549): 52 µM
IC50 (HeLa): 245 µM
IC50 (DU-145): 47 µM

Cc1cccc(-n2nc(C)c3c(=O)oc4ccccc4c32)c1
IC50 (A549): 43 µM
IC50 (HeLa): 154 µM
IC50 (DU-145): 150 µM

Cc1nn(-c2ccccc2)c2c1c(=O)oc1ccccc12
IC50 (A549): 119 µM
IC50 (HeLa): 120 µM
IC50 (DU-145): 120 µM

CCOC(=O)c1c(-c2cc3ccc(OCC=C(C)C)cc3oc2=O)nn(-c2ccccc2)c1C(=O)OCC
IC50 (A549): 136 µM
IC50 (HeLa): 130 µM
IC50 (DU-145): 75 µM

CCOC(=O)c1c(-c2cc3ccccc3oc2=O)nn(-c2ccccc2)c1C(=O)OCC
IC50 (A549): 100 µM
IC50 (HeLa): 100 µM
IC50 (DU-145): 57 µM

CCOC(=O)c1c(-c2cc3c(ccc4ccccc43)oc2=O)nn(-c2cccc(Cl)c2)c1C(=O)OCC
IC50 (A549): 165 µM
IC50 (HeLa): 170 µM
IC50 (DU-145): 257 µM

CCOC(=O)c1c(-c2cc3ccccc3oc2=O)nn(-c2cccc(Cl)c2)c1C(=O)OCC
IC50 (A549): 28 µM
IC50 (HeLa): 22 µM
IC50 (DU-145): 35 µM

CCOC(=O)c1c(-c2cc3ccccc3oc2=O)nn(-c2cccc(F)c2)c1C(=O)OCC
IC50 (A549): 59 µM
IC50 (HeLa): 68 µM
IC50 (DU-145): 32 µM

CCOC(=O)c1c(-c2cc3ccc(OC)cc3oc2=O)nn(-c2cccc(Cl)c2)c1C(=O)OCC
IC50 (A549): 221 µM
IC50 (HeLa): 205 µM
IC50 (DU-145): 38 µM

CCOC(=O)c1c(-c2cc3cc4c(cc3oc2=O)OC(C)(C)CC4)nn(-c2cccc(Cl)c2)c1C(=O)OCC
IC50 (A549): 146 µM
IC50 (HeLa): 145 µM
IC50 (DU-145): 74 µM

COc1cccc2c1C(=O)c1c(O)c3c(c(O)c1C2=O)C[C@@](O)(C(=O)CO)C[C@@H]3O[C@H]1C[C@H](N)[C@H](O)[C@H](C)O1 [DOXORUBICIN]
IC50 (A549): 4 µM
IC50 (HeLa): 4.1 µM
IC50 (DU-145): 6 µM

CCOC(=O)c1c(-c2cc3ccccc3oc2=O)nn(-c2ccc(Br)cc2)c1C(=O)OCC
IC50 (A549): 100 µM
IC50 (HeLa): 250 µM
IC50 (DU-145): 61 µM

CCOC(=O)c1c(-c2c(Cl)c3cc(C)ccc3oc2=O)nn(-c2cccc(Cl)c2)c1C(=O)OCC
IC50 (A549): 128 µM
IC50 (HeLa): 125 µM
IC50 (DU-145): 156 µM

O=c1oc2ccccc2c2c1cnn2-c1cccc(Cl)c1
IC50 (A549): 110 µM
IC50 (HeLa): 110 µM
IC50 (DU-145): 60 µM

COC(=O)c1c(-c2cc3ccccc3oc2=O)nn(-c2cccc(F)c2)c1C(=O)OC
IC50 (A549): 50 µM
IC50 (HeLa): 76 µM
IC50 (DU-145): 37 µM

CCOC(=O)c1c(-c2cc3ccc(OCC=C(C)C)cc3oc2=O)nn(-c2cccc(C)c2)c1C(=O)OCC
IC50 (A549): 178 µM
IC50 (HeLa): 150 µM
IC50 (DU-145): 125 µM

CCOC(=O)c1c(-c2cc3c(ccc4ccccc43)oc2=O)nn(-c2ccccc2)c1C(=O)OCC
IC50 (A549): 136 µM
IC50 (HeLa): 120 µM
IC50 (DU-145): 80 µM

COC(=O)c1c(-c2cc3ccccc3oc2=O)nn(-c2cccc(Cl)c2)c1C(=O)OC
IC50 (A549): 30 µM
IC50 (HeLa): 76 µM
IC50 (DU-145): 32 µM

CCOC(=O)c1c(-c2cc3ccc(OC)cc3oc2=O)nn(-c2ccccc2)c1C(=O)OCC
IC50 (A549): 132 µM
IC50 (HeLa): 140 µM
IC50 (DU-145): 33 µM

CCOC(=O)c1c(-c2c(Cl)c3ccccc3oc2=O)nn(-c2ccccc2)c1C(=O)OCC
IC50 (A549): 34 µM
IC50 (HeLa): 100 µM
IC50 (DU-145): 48 µM

COC(=O)c1c(-c2cc3ccccc3oc2=O)nn(-c2ccccc2)c1C(=O)OC
IC50 (A549): 28 µM
IC50 (HeLa): 35 µM
IC50 (DU-145): 30 µM

COc1ccc(-n2nc(C)c3c(=O)oc4ccccc4c32)cc1
IC50 (A549): 27 µM
IC50 (HeLa): 190 µM
IC50 (DU-145): 175 µM

Cc1cccc(-n2ncc3c(=O)oc4ccc(C)cc4c32)c1
IC50 (A549): 145 µM
IC50 (HeLa): 150 µM
IC50 (DU-145): 130 µM

Cc1nn(-c2ccc(Br)cc2)c2c1c(=O)oc1ccccc12
IC50 (A549): 130 µM
IC50 (HeLa): 130 µM
IC50 (DU-145): 53 µM

CCOC(=O)c1c(-c2c(Cl)c3ccccc3oc2=O)nn(-c2cccc(C)c2)c1C(=O)OCC
IC50 (A549): 36 µM
IC50 (HeLa): 30 µM
IC50 (DU-145): 32 µM

CCOC(=O)c1c(-c2c(Cl)c3cc(C)ccc3oc2=O)nn(-c2cccc(C)c2)c1C(=O)OCC
IC50 (A549): 115 µM
IC50 (HeLa): 115 µM
IC50 (DU-145): 103 µM

COC(=O)c1c(-c2cc3ccccc3oc2=O)nn(-c2cccc(C)c2)c1C(=O)OC
IC50 (A549): 51 µM
IC50 (HeLa): 45 µM
IC50 (DU-145): 35 µM

CCOC(=O)c1c(-c2cc3cc(OC)ccc3oc2=O)nn(-c2cccc(Cl)c2)c1C(=O)OCC
IC50 (A549): 148 µM
IC50 (HeLa): 160 µM
IC50 (DU-145): 29 µM

CCOC(=O)c1c(-c2cc3cc4c(cc3oc2=O)OC(C)(C)CC4)nn(-c2cccc(C)c2)c1C(=O)OCC
IC50 (A549): 175 µM
IC50 (HeLa): 105 µM
IC50 (DU-145): 67 µM

CCOC(=O)c1c(-c2cc3ccc(OC)cc3oc2=O)nn(-c2cccc(C)c2)c1C(=O)OCC
IC50 (A549): 171 µM
IC50 (HeLa): 35 µM
IC50 (DU-145): 35 µM

Cc1nn(-c2cccc(F)c2)c2c1c(=O)oc1ccccc12
IC50 (A549): 125 µM
IC50 (HeLa): 276 µM
IC50 (DU-145): 134 µM

COc1ccc2oc(=O)c3c(C)nn(-c4ccccc4)c3c2c1
IC50 (A549): 150 µM
IC50 (HeLa): 115 µM
IC50 (DU-145): 150 µM

CCOC(=O)c1c(-c2cc3ccccc3oc2=O)nn(-c2ccc(Cl)cc2)c1C(=O)OCC
IC50 (A549): 35 µM
IC50 (HeLa): 87 µM
IC50 (DU-145): 26 µM

CCOC(=O)c1c(-c2cc3ccc(OCC=C(C)C)cc3oc2=O)nn(-c2cccc(Cl)c2)c1C(=O)OCC
IC50 (A549): 163 µM
IC50 (HeLa): 110 µM
IC50 (DU-145): 139 µM

CCOC(=O)c1c(-c2c(Cl)c3ccccc3oc2=O)nn(-c2ccc(Br)cc2)c1C(=O)OCC
IC50 (A549): 30 µM
IC50 (HeLa): 500 µM
IC50 (DU-145): 32 µM

CCOC(=O)c1c(-c2cc3ccccc3oc2=O)nn(-c2ccc(C)c(C)c2)c1C(=O)OCC
IC50 (A549): 52 µM
IC50 (HeLa): 50 µM
IC50 (DU-145): 40 µM
